Tests used:
Assay in all cases: radiometric filter-binding kinase assay
[1] = system: AKT1 (human), P31749 [S473D]
MAP2K6 (human) = MAP2K6 (human) (UniProt P52564)
PLK1 (human) = PLK1 (human) (UniProt P53350)
MAPK13 (human) = MAPK13 (human) (UniProt O15264)
EPHB2 (human) = EPHB2 (human) (UniProt P29323)
PRKACA (human) = PRKACA (human) (UniProt P17612)
ERBB4 (human) = ERBB4 (human) (UniProt Q15303)
AURKA (human) = AURKA (human) (UniProt O14965)
IKBKE (human) = IKBKE (human) (UniProt Q14164)
MAPK8 (human) = MAPK8 (human) (UniProt P45983)
CHEK2 (human) = CHEK2 (human) (UniProt O96017)
EPHB3 (human) = EPHB3 (human) (UniProt P54753)
PRKCA (human) = PRKCA (human) (UniProt P17252)
MAPK10 (human) = MAPK10 (human) (UniProt P53779)
BRSK2 (human) = BRSK2 (human) (UniProt Q8IWQ3)
MAP3K11 (human) = MAP3K11 (human) (UniProt Q16584)
PAK4 (human) = PAK4 (human) (UniProt O96013)
NEK2 (human) = NEK2 (human) (UniProt P51955)
MKNK1 (human) = MKNK1 (human) (UniProt Q9BUB5)
DYRK2 (human) = DYRK2 (human) (UniProt Q92630)
RPS6KA1 KD1 KD2 (human) = RPS6KA1 KD1 KD2 (human) (UniProt Q15418)
MAPKAPK3 (human) = MAPKAPK3 (human) (UniProt Q16644)
MST4 (human) = MST4 (human) (UniProt Q9P289)
HIPK2 (human) = HIPK2 (human) (UniProt Q9H2X6)
MAPK1 (human) = MAPK1 (human) (UniProt P28482)
CaMK1 (human) = CaMK1 (human) (UniProt Q14012)
MARK2 (human) = MARK2 (human) (UniProt Q7KZI7)
PAK7 (human) = PAK7 (human) (UniProt Q9P286)
SYK (human) = SYK (human) (UniProt P43405)
DYRK1A (human) = DYRK1A (human) (UniProt Q13627)
[2] = system: SGK1 (human), O00141 [S422D]
NUAK1 (human) = NUAK1 (human) (UniProt O60285)
MAPK12 (human) = MAPK12 (human) (UniProt P53778)
PRKAA1 or PRKAA2 (rat) = settings: accession and sequence are those of the human protein
MAPK3 (human) = MAPK3 (human) (UniProt P27361)
Chain of MAPK3 (human) (P27361 whole entry, looked up): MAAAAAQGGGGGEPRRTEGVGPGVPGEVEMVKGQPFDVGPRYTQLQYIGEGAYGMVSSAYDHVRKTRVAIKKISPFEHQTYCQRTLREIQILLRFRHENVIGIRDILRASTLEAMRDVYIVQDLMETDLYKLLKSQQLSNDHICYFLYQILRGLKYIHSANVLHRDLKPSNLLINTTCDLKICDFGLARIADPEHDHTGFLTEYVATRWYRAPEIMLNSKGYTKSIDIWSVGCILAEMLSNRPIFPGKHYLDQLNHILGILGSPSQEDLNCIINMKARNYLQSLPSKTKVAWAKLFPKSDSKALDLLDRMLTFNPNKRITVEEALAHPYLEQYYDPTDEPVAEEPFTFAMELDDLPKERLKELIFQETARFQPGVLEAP

Chain of EPHB2 (human) (P29323 whole entry, looked up): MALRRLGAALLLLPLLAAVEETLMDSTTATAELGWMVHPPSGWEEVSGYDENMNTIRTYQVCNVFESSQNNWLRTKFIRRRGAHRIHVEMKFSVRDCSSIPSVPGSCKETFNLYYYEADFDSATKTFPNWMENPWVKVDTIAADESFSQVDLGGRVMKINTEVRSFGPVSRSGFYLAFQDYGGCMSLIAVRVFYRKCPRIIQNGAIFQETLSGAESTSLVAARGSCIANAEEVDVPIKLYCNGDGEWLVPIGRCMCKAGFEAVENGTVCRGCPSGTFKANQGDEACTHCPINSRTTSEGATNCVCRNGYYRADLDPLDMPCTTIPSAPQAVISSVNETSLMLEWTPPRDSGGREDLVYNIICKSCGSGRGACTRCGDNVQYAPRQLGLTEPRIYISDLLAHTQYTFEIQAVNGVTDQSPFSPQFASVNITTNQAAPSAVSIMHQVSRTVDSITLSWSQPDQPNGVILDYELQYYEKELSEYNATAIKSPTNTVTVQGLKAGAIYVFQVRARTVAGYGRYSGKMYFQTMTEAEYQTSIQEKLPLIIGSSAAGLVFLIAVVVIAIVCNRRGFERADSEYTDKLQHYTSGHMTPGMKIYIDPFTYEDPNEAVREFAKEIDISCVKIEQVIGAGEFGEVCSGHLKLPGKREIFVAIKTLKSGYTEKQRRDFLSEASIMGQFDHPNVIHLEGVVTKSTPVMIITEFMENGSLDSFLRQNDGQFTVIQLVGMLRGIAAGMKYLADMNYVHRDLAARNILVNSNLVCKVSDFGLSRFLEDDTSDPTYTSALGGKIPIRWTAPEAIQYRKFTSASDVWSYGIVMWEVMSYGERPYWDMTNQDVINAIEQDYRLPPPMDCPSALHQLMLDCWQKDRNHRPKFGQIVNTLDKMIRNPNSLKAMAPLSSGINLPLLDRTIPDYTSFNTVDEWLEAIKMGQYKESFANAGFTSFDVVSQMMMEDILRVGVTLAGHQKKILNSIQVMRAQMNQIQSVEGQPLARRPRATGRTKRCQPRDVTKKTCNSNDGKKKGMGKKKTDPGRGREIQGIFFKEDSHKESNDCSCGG
Chain of NEK2 (human) (P51955 whole entry, looked up): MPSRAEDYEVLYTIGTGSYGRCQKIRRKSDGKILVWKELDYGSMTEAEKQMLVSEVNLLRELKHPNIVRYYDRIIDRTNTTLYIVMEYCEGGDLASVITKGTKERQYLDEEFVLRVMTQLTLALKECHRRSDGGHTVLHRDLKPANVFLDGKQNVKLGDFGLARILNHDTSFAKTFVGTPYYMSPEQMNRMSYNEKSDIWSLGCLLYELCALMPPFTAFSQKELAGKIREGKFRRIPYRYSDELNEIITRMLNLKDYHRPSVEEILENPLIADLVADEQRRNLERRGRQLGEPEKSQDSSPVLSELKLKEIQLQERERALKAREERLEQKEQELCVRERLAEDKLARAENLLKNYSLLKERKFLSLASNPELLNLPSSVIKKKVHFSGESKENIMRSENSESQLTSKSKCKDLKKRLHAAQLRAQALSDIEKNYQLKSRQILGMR
Chain of EPHB3 (human) (P54753 whole entry, looked up): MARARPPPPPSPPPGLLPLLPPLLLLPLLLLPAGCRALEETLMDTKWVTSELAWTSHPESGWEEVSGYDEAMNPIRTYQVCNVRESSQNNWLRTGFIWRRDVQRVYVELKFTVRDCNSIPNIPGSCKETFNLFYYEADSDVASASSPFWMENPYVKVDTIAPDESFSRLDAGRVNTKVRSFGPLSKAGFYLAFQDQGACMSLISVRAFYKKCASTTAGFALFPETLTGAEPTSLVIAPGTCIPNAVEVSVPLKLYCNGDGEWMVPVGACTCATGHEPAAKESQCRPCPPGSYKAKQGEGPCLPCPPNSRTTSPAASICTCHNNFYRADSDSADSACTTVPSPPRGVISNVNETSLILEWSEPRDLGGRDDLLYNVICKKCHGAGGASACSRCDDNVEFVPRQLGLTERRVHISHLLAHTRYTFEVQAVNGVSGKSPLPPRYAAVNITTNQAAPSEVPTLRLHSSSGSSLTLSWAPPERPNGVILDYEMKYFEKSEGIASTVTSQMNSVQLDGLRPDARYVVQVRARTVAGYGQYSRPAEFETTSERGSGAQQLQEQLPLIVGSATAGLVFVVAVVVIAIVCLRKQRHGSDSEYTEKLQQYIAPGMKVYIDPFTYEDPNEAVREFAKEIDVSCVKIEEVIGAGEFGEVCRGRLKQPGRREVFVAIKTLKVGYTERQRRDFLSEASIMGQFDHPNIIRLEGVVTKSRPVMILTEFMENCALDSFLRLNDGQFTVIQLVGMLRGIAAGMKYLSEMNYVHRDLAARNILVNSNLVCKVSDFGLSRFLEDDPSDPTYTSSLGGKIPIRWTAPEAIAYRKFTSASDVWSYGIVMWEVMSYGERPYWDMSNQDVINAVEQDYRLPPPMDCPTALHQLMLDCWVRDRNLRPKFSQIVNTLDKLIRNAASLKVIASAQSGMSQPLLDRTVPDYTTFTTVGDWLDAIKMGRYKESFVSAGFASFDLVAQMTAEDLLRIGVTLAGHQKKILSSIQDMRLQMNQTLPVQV
Chain of AKT1 (human), P31749 [S473D] (P31749 whole entry S473D, looked up): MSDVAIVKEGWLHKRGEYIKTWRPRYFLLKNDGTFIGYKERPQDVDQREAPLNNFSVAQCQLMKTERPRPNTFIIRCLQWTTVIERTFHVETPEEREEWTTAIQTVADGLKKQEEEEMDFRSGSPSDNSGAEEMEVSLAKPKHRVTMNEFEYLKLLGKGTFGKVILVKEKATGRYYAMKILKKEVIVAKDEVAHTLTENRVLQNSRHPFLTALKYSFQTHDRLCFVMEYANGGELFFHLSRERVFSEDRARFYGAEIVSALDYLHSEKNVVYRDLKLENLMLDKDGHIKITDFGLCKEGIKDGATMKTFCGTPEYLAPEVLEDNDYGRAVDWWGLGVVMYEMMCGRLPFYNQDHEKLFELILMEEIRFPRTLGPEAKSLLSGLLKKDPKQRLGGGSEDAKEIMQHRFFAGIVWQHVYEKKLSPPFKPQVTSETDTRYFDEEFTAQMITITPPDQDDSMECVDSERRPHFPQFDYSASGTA
Chain of MARK2 (human) (Q7KZI7 whole entry, looked up): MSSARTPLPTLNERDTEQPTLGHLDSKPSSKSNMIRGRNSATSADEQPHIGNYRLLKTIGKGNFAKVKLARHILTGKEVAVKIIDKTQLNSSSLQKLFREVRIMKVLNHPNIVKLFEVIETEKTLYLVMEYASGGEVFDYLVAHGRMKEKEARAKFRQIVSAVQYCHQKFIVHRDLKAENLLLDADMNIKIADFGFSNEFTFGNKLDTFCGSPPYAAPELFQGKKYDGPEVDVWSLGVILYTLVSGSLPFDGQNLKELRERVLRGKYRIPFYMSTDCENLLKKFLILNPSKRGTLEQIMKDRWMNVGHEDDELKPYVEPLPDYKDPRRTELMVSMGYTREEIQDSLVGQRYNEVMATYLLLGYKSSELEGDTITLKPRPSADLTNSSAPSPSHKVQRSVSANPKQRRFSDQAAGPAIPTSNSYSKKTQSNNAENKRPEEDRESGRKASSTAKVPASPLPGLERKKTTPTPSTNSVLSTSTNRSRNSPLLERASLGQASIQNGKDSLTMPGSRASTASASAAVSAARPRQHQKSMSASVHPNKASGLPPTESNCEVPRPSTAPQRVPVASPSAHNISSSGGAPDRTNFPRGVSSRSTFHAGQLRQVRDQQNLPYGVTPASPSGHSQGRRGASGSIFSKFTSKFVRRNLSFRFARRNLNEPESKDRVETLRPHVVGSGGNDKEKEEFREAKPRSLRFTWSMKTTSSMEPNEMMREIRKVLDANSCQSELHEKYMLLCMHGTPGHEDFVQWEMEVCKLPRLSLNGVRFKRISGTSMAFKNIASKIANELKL

## COc1cc(O)c2c(c1)[C@H]1OC1C[C@H](O)[C@H](O)C(=O)/C=C\C[C@H](C)OC2=O (stereo partly specified)
[1]; compound 0.01 µM
  residual activity: 109%
[1]; compound 0.1 µM
  residual activity: 124%
[1]; compound 1.0 µM
  residual activity: 107%
MAP2K6 (human); compound 0.01 µM
  residual activity: 59%
MAP2K6 (human); compound 0.1 µM
  residual activity: 21%
MAP2K6 (human); compound 1.0 µM
  residual activity: 20%
PLK1 (human); compound 0.01 µM
  residual activity: 102%
PLK1 (human); compound 0.1 µM
  residual activity: 107%
PLK1 (human); compound 1.0 µM
  residual activity: 114%
MAPK13 (human); compound 0.01 µM
  residual activity: 101%
MAPK13 (human); compound 0.1 µM
  residual activity: 100%
MAPK13 (human); compound 1.0 µM
  residual activity: 108%
EPHB2 (human); compound 0.01 µM
  residual activity: 124%
EPHB2 (human); compound 0.1 µM
  residual activity: 118%
EPHB2 (human); compound 1.0 µM
  residual activity: 115%
PRKACA (human); compound 0.01 µM
  residual activity: 91%
PRKACA (human); compound 0.1 µM
  residual activity: 99%
PRKACA (human); compound 1.0 µM
  residual activity: 100%
ERBB4 (human); compound 0.1 µM
  residual activity: 104%
ERBB4 (human); compound 1.0 µM
  residual activity: 105%
AURKA (human); compound 0.01 µM
  residual activity: 106%
AURKA (human); compound 0.1 µM
  residual activity: 103%
AURKA (human); compound 1.0 µM
  residual activity: 108%
IKBKE (human); compound 0.01 µM
  residual activity: 108%
IKBKE (human); compound 0.1 µM
  residual activity: 105%
IKBKE (human); compound 1.0 µM
  residual activity: 92%
MAPK8 (human); compound 0.01 µM
  residual activity: 104%
MAPK8 (human); compound 0.1 µM
  residual activity: 98%
MAPK8 (human); compound 1.0 µM
  residual activity: 80%
CHEK2 (human); compound 0.01 µM
  residual activity: 91%
CHEK2 (human); compound 0.1 µM
  residual activity: 91%
EPHB3 (human); compound 0.01 µM
  residual activity: 118%
EPHB3 (human); compound 0.1 µM
  residual activity: 130%
EPHB3 (human); compound 1.0 µM
  residual activity: 92%
PRKCA (human); compound 0.01 µM
  residual activity: 88%
PRKCA (human); compound 0.1 µM
  residual activity: 88%
PRKCA (human); compound 1.0 µM
  residual activity: 92%
MAPK10 (human); compound 0.01 µM
  residual activity: 89%
MAPK10 (human); compound 0.1 µM
  residual activity: 101%
MAPK10 (human); compound 1.0 µM
  residual activity: 107%
BRSK2 (human); compound 0.01 µM
  residual activity: 114%
BRSK2 (human); compound 0.1 µM
  residual activity: 93%
BRSK2 (human); compound 1.0 µM
  residual activity: 96%
MAP3K11 (human); compound 0.1 µM
  residual activity: 102%
MAP3K11 (human); compound 1.0 µM
  residual activity: 90%
PAK4 (human); compound 0.01 µM
  residual activity: 81%
PAK4 (human); compound 0.1 µM
  residual activity: 100%
NEK2 (human); compound 0.01 µM
  residual activity: 103%
NEK2 (human); compound 0.1 µM
  residual activity: 127%
NEK2 (human); compound 1.0 µM
  residual activity: 105%
MKNK1 (human); compound 0.01 µM
  residual activity: 100%
MKNK1 (human); compound 0.1 µM
  residual activity: 87%
MKNK1 (human); compound 1.0 µM
  residual activity: 55%
DYRK2 (human); compound 0.01 µM
  residual activity: 109%
DYRK2 (human); compound 0.1 µM
  residual activity: 105%
RPS6KA1 KD1 KD2 (human); compound 0.1 µM
  residual activity: 92%
RPS6KA1 KD1 KD2 (human); compound 1.0 µM
  residual activity: 85%
MAPKAPK3 (human); compound 0.01 µM
  residual activity: 105%
MAPKAPK3 (human); compound 0.1 µM
  residual activity: 99%
MAPKAPK3 (human); compound 1.0 µM
  residual activity: 99%
MST4 (human); compound 0.01 µM
  residual activity: 96%
MST4 (human); compound 0.1 µM
  residual activity: 106%
MST4 (human); compound 1.0 µM
  residual activity: 86%
HIPK2 (human); compound 0.01 µM
  residual activity: 96%
HIPK2 (human); compound 0.1 µM
  residual activity: 86%
HIPK2 (human); compound 1.0 µM
  residual activity: 72%
MAPK1 (human); compound 0.01 µM
  residual activity: 96%
MAPK1 (human); compound 0.1 µM
  residual activity: 87%
MAPK1 (human); compound 1.0 µM
  residual activity: 36%
CaMK1 (human); compound 0.01 µM
  residual activity: 96%
CaMK1 (human); compound 0.1 µM
  residual activity: 96%
CaMK1 (human); compound 1.0 µM
  residual activity: 112%
MARK2 (human); compound 0.01 µM
  residual activity: 90%
MARK2 (human); compound 0.1 µM
  residual activity: 100%
MARK2 (human); compound 1.0 µM
  residual activity: 100%
PAK7 (human); compound 0.01 µM
  residual activity: 102%
PAK7 (human); compound 0.1 µM
  residual activity: 115%
SYK (human); compound 0.1 µM
  residual activity: 108%
SYK (human); compound 1.0 µM
  residual activity: 85%
DYRK1A (human); compound 0.01 µM
  residual activity: 98%
DYRK1A (human); compound 0.1 µM
  residual activity: 105%
DYRK1A (human); compound 1.0 µM
  residual activity: 101%
[2]; compound 0.01 µM
  residual activity: 93%
[2]; compound 0.1 µM
  residual activity: 91%
[2]; compound 1.0 µM
  residual activity: 104%
NUAK1 (human); compound 0.01 µM
  residual activity: 93%
NUAK1 (human); compound 0.1 µM
  residual activity: 99%
NUAK1 (human); compound 1.0 µM
  residual activity: 105%
MAPK12 (human); compound 0.01 µM
  residual activity: 100%
MAPK12 (human); compound 0.1 µM
  residual activity: 105%
PRKAA1 or PRKAA2 (rat); compound 0.01 µM
  residual activity: 105%
PRKAA1 or PRKAA2 (rat); compound 0.1 µM
  residual activity: 105%
PRKAA1 or PRKAA2 (rat); compound 1.0 µM
  residual activity: 94%
MAPK3 (human); compound 0.01 µM
  residual activity: 111%
MAPK3 (human); compound 0.1 µM
  residual activity: 102%
MAPK3 (human); compound 1.0 µM
  residual activity: 57%

Reference: the kinase profiling compilation of Christmann-Franck et al. (2016)
